Source: PubChem BioAssay (NCI)
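Five concentrations, 48 hours, 96-well plates. TGI: total growth inhibition.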

What was measured:
Experiment in all cases: growth of human tumour cells (NCI), 48 h
[1] = tested on: SW-620 colon
[2] = tested on: IGROV1 ovarian
[3] = tested on: RXF 393 renal
[4] = tested on: SF-268 CNS
[5] = tested on: LOX IMVI melanoma
[6] = tested on: SF-295 CNS
[7] = tested on: HS 578T breast
[8] = tested on: SF-539 CNS
[9] = tested on: PC-3 prostate
[10] = tested on: MCF7 breast
[11] = tested on: CCRF-CEM leukemia
[12] = tested on: OVCAR-3 ovarian
[13] = tested on: HOP-62 NSCLC
[14] = tested on: NCI/ADR-RES ovarian
[15] = tested on: U251 CNS
[16] = tested on: KM12 colon
[17] = tested on: T-47D breast
[18] = tested on: COLO 205 colon
[19] = tested on: SK-MEL-2 melanoma
[20] = tested on: UACC-257 melanoma
[21] = tested on: UACC-62 melanoma
[22] = tested on: M14 melanoma
[23] = tested on: SK-OV-3 ovarian
[24] = tested on: SN12C renal
[25] = tested on: RPMI-8226 leukemia
[26] = tested on: MOLT-4 leukemia
[27] = tested on: A498 renal
[28] = tested on: HT29 colon
[29] = tested on: NCI-H226 lung
[30] = tested on: OVCAR-4 ovarian
[31] = tested on: TK-10 renal
[32] = tested on: MALME-3M melanoma
[33] = tested on: HL-60(TB) leukemia
[34] = tested on: OVCAR-8 ovarian
[35] = tested on: BT-549 breast
[36] = tested on: A549 NSCLC
[37] = tested on: SK-MEL-5 melanoma
[38] = tested on: SNB-19 CNS
[39] = tested on: NCI-H460 lung
[40] = tested on: SK-MEL-28 melanoma
[41] = tested on: SNB-75 CNS
[42] = tested on: MDA-MB-231 breast
[43] = tested on: HOP-92 NSCLC
[44] = tested on: K-562 leukemia
[45] = tested on: NCI-H23 lung
[46] = tested on: UO-31 renal
[47] = tested on: MDA-MB-435
[48] = tested on: HCT-116 colon
[49] = tested on: CAKI-1 renal
[50] = tested on: MDA-N
[51] = tested on: HCT-15 colon
[52] = tested on: DU-145 prostate
[53] = tested on: 786-0 renal
[54] = tested on: SR leukemia
[55] = tested on: ACHN renal
[56] = tested on: HCC-2998 colon
[57] = tested on: OVCAR-5 ovarian
[58] = tested on: EKVX NSCLC
[59] = tested on: NCI-H522 lung

Measured: TGI

CC(C)CCCC(C)[C@H]1CC[C@H]2n3c(nc4ccccc43)CCC[C@]12C (stereo partly specified)
23.7 µM: [18]
34.3 µM: [40] | [49]
35.9 µM: [26]
32.8 µM: [37]
42.9 µM: [9]
34.6 µM: [2]
30.8 µM: [21]
38.6 µM: [47]
42.6 µM: [15]
35.7 µM: [35]
26.4 µM: [28]
49 µM: [11]
33.9 µM: [25]
53.4 µM: [48]
30.7 µM: [6]
32 µM: [39]
35.8 µM: [17]
28 µM: [27]
46.1 µM: [32]
35.2 µM: [8]
58.5 µM: [52]
28.5 µM: [10]
39 µM: [12]
30.9 µM: [23]
33.4 µM: [51]
31.5 µM: [30]
> 100 µM: [5]
33.8 µM: [14]
33 µM: [42]
32.3 µM: [33]
32.4 µM: [50]
52.5 µM: [16]
36.5 µM: [44]
38.2 µM: [31]
34.4 µM: [45]
33.5 µM: [3] | [29]
35.5 µM: [19]
43 µM: [4]
31.1 µM: [24]
63.8 µM: [7]
37.1 µM: [38]
47.3 µM: [1]
35.4 µM: [22]
40.6 µM: [13]
38.1 µM: [20]
28.6 µM: [46]
37.3 µM: [43] | [53]
29.3 µM: [41]
50.3 µM: [36]
37.2 µM: [34] | [54]

CON(C)C(=O)[C@H]1C[C@@]1(C)CO
> 100 µM: [1] | [2] | [3] | [4] | [55] | [6] | [7] | [9] | [10] | [11] | [12] | [13] | [14] | [15] | [16] | [17] | [18] | [19] | [20] | [21] | [22] | [23] | [24] | [26] | [27] | [28] | [29] | [30] | [31] | [32] | [34] | [35] | [36] | [37] | [38] | [39] | [40] | [41] | [42] | [43] | [44] | [45] | [56] | [46] | [47] | [48] | [49] | [50] | [51] | [52] | [53] | [57] | [58] | [54]

CCCC1CC(=O)NC(=O)C1C(=O)OC(C)(C)C (stereo unspecified)
> 100 µM: [1] | [2] | [3] | [4] | [55] | [5] | [6] | [7] | [9] | [10] | [12] | [13] | [14] | [15] | [16] | [17] | [18] | [19] | [20] | [21] | [24] | [59] | [25] | [26] | [27] | [28] | [29] | [30] | [31] | [32] | [33] | [34] | [35] | [37] | [38] | [39] | [40] | [41] | [42] | [44] | [45] | [56] | [46] | [47] | [48] | [49] | [50] | [51] | [52] | [53] | [57] | [58] | [54]

CCCCNS(=O)(=O)c1n[nH]c(=O)[nH]c1=O
> 100 µM: [1] | [2] | [3] | [4] | [55] | [5] | [6] | [7] | [8] | [9] | [10] | [12] | [13] | [14] | [15] | [16] | [17] | [18] | [19] | [21] | [22] | [23] | [24] | [59] | [25] | [26] | [27] | [28] | [29] | [30] | [32] | [33] | [34] | [35] | [36] | [37] | [38] | [39] | [40] | [41] | [42] | [44] | [45] | [46] | [47] | [48] | [49] | [50] | [51] | [52] | [53] | [57] | [58] | [54]
35.7 µM: [11]
